Measured values reported in patent publication US4265808A, “Pharmacologically active peptides” (Eli Lilly and Company, priority 1979, dated 1981).
Where a name gives a salt, the structure may show the parent alone. Where a SMILES comes first, the peptide text is derived from it. [ ]: non-standard residue; d: D form. NEtPhe(4-F) = CCN[C@@H](Cc1ccc(F)cc1)C(=O)O

Tested on: mouse
Experiment: mouse hot plate test (analgesic activity)
Format: in vivo
Conditions: hot plate 52° C., 15 minutes after administration, latency to jump; for Analgesic Activity, Hot Plate Test ED50, mg./kg. subcutaneous: subcutaneous injection
Protocol: In this test, a mouse is placed inside an upright acrylic cylinder comprising, as its base, a hot plate surface which is maintained at 52° C. The mouse is given, orally or by subcutaneous injection, a predetermined amount of test compound dissolved or suspended in a suitable carrier, and, 15 minutes after administration of the test compound, the mouse is placed on the hot plate surface. The latency in seconds until the mouse jumps from the hot plate surface is measure. […] This must occur in a dose range which produces no motor incoordination or incapacitation. The following Table records the ED50 results obtained from this test.

SMILES | Analgesic Activity, Hot Plate Test ED50, mg./kg. oral [mg/kg] | Analgesic Activity, Hot Plate Test ED50, mg./kg. subcutaneous [mg/kg]
CCN(C(=O)CNC(=O)[C@@H](C)NC(=O)[C@@H](N)Cc1ccc(O)cc1)[C@@H](Cc1ccc(F)cc1)C(N)=O [Example 1, L-Tyrosyl-D-alanyl-glycyl-L-(N-ethyl)-p-fluorophenylalanine Amide, Acetate Salt] | 19 | 0.00018
CCN(C(=O)CNC(=O)[C@H](NC(=O)[C@@H](N)Cc1ccc(O)cc1)[C@H](C)O)[C@@H](Cc1ccc(F)cc1)C(N)=O [Example 2, L-Tyrosyl-D-threonyl-glycyl-L-(N^α -ethyl)-p-fluorophenylalanine Amide, Acetate Salt] (H-Y[dT]G[NEtPhe(4-F)]-NH2) | – | 0.0121
CCN(C(=O)CNC(=O)[C@@H](C)NC(=O)[C@H](Cc1ccc(O)cc1)NC)[C@@H](Cc1ccc(F)cc1)C(N)=O [Example 3, L-N^α -Methyl-tyrosyl-D-alanyl-glycyl-L-(N^α -Ethyl)-p-fluorophenylalanine Amide, Acetate Salt] | 3.55 | 0.0117
